In patent publication US9315490B2, “2,5-substituted pyrimidines” (Grünenthal GmbH, priority 2014, dated 2016):

Target: T1, human PDE4B1 (Homo sapiens, UniProt Q07343)
T1 construct: host or cells: Sf9 cells
Experiment: cAMP HTRF assay to determine the activity of hPDE4B1
Assay type: biochemical
Conditions: inhibition of PDE4B at a test concentration of 1 μM; for Inhibition in %: 1 µM
Method: Biological Testing cAMP HTRF® Assay to Determine the Activity of hPDE4B1
The inhibiting effect of the compounds on the enzyme activity of human PDE4B1 was measured by the quantification of 5′-adenosine monophosphate (5′-AMP), which is formed from 3′,5′-cyclic adenosine monophosphate (cAMP). Human recombinant enzyme, expressed in Sf9 cells, and the HTRF (homogeneous time-resolved fluorescence) detection method were used in the assay.
The test compound or water (control) was mixed with the human recombinant PDE4B1 enzyme (4.8 U) in a buffer consisting of 44.4 mM tris-HCl, 5.28 mM MgCl2, 2.64 mM DTT and 0.044% Tween 20 (pH 7.8). After adding the cAMP enzyme substrate (final concentration 40 nM), the mixture was incubated for 30 minutes at room temperature. Then a fluorescence acceptor (Dye2 marked with cAMP), a fluorescence donor (anti-cAMP antibody marked with a europium cryptate) and the non-specific phosphodiesterase inhibitor IBMX (3-isobutyl-1-methylxanthine; final concentration 1 mM) were added. After 60 minutes the fluorescence transfer, which correlates with the amount of remaining cAMP, was measured with a microplate reader (Rubystar, BMG) at λex=337 nm, λem=620 nm and λem=665 nm. The enzyme activity was calculated from the quotient formed from the measured signal at 665 nm and that at 620 nm. The result was expressed as the percentage inhibition of enzyme activity of the control (without PDE4 inhibitor). The enzyme was omitted for measurement of the basal control. IC50 values (IC50=concentration causing a half-maximal inhibition of control specific activity) were derived from dose response measurements with eight different concentrations (n=2; N=1-3).
Literature: N. Saldou et al., Comparison of recombinant human PDE4 isoforms: interaction with substrate and inhibitors, Cell. Signal. Vol. 10, No. 6, 427-440, 1998

T1 sequence (Q07343 whole entry): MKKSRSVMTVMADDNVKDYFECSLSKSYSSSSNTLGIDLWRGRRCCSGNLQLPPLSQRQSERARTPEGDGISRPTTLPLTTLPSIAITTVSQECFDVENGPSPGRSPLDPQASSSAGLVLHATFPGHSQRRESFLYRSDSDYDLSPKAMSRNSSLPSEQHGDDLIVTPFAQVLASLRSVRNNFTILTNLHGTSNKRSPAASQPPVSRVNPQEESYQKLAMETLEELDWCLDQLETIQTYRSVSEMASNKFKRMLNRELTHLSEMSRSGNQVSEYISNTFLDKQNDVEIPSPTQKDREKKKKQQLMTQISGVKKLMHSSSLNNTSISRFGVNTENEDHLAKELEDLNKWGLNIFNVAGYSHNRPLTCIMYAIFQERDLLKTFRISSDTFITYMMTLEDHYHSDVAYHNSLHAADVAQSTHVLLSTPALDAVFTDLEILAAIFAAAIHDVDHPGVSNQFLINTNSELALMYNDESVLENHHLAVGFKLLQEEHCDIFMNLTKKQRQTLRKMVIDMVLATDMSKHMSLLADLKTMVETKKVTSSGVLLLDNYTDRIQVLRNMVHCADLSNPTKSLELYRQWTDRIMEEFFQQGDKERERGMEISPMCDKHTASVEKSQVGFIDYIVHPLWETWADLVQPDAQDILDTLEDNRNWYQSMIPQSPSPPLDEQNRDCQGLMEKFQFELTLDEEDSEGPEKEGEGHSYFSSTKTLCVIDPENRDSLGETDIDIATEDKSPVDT

| SMILES | inhibition at 1 µM | Inhibition in % |
| --- | --- | --- |
| C[S+]([O-])c1cn(-c2ncc(-c3ccccc3F)cn2)c2cc(C(=O)N3CC[C@H](O)C3)ccc12 (stereo partly drawn) [Example 67, (1-(5-(2-Fluorophenyl)pyrimidin-2-yl)-3-(methylsulfinyl)-1H-indol-6-yl)((S)-3-hydroxypyrrolidin-1-yl)methanone] | 47% |  |
| CC1CCCN(C(=O)c2ccc3c([S+](C)[O-])cn(-c4ncc(-c5ccccc5F)cn4)c3c2)C1 (centres unmarked) [Example 362, (1-(5-(2-Fluorophenyl)pyrimidin-2-yl)-3-(methylsulfinyl)-1H-indol-6-yl)(3-methylpiperidin-1-yl)methanone] | 78% |  |
| C[S+]([O-])c1cn(-c2ncc(-c3ccccc3F)cn2)c2cc(C(=O)N3CCCCC3CO)ccc12 (centres unmarked) [Example 379, (1-(5-(2-Fluorophenyl)pyrimidin-2-yl)-3-(methylsulfinyl)-1H-indol-6-yl)(2-(hydroxymethyl)piperidin-1-yl)methanone] | 50% |  |
| CS(=O)(=O)c1cn(-c2ncc(-c3ccccc3)cn2)c2cc(C(=O)N3C[C@H]4C[C@@H]3CO4)ccc12 [Example 237, (1R,4R)-2-Oxa-5-azabicyclo[2.2.1]heptan-5-yl(3-(methylsulfonyl)-1-(5-phenylpyrimidin-2-yl)-1H-indol-6-yl)methanone] | 36% |  |
| CS(=O)(=O)c1cn(-c2ncc(-c3ccccc3)cn2)c2cc(C(=O)N3C[C@@H]4C[C@H]3CN4)ccc12 [Example 236, (1S,4S)-2,5-Diazabicyclo[2.2.1]heptan-2-yl(3-(methylsulfonyl)-1-(5-phenylpyrimidin-2-yl)-1H-indol-6-yl)methanone] | 85% |  |
| C[S+]([O-])c1cn(-c2ncc(-c3ccccc3F)cn2)c2cc(C(=O)N3CCC4(CC3)COC4)ccc12 (centres unmarked) [Example 384, (1-(5-(2-Fluorophenyl)pyrimidin-2-yl)-3-(methylsulfinyl)-1H-indol-6-yl)(2-oxa-7-azaspiro[3.5]nonan-7-yl)methanone] | 3% |  |
| C[S+]([O-])c1cn(-c2ncc(-c3ccccc3F)cn2)c2cc(C(=O)N3CCCNCC3)ccc12 (centres unmarked) [Example 55, (1,4-Diazepan-1-yl)(1-(5-(2-fluorophenyl)pyrimidin-2-yl)-3-(methylsulfinyl)-1H-indol-6-yl)methanone] | 40% |  |
| C[S+]([O-])c1cn(-c2ncc(-c3ccccc3F)cn2)c2cc(C(=O)NCCO)ccc12 (centres unmarked) [Example 63, 1-(5-(2-Fluorophenyl)pyrimidin-2-yl)-N-(2-hydroxyethyl)-3-(methylsulfinyl)-1H-indole-6-carboxamide] | 37% |  |
| CS(=O)(=O)c1cn(-c2ncc(-c3ccccc3)cn2)c2cc(C(=O)N3CCNCC3)ccc12 [Example 21, (3-(Methylsulfonyl)-1-(5-phenylpyrimidin-2-yl)-1H-indol-6-yl)(piperazin-1-yl)methanone] | 32% |  |
| CCC1CCCCN1C(=O)c1ccc2c([S+](C)[O-])cn(-c3ncc(-c4ccccc4F)cn3)c2c1 (centres unmarked) [Example 371, (2-Ehylpiperidin-1-yl)(1-(5-(2-fluorophenyl)pyrimidin-2-yl)-3-(methylsulfinyl)-1H-indol-6-yl)methanone] | 32% |  |
| COCCN(C)C(=O)c1ccc2c([S+](C)[O-])cn(-c3ncc(-c4ccccc4F)cn3)c2c1 (centres unmarked) [Example 65, 1-(5-(2-Fluorophenyl)pyrimidin-2-yl)-N-(2-methoxyethyl)-N-methyl-3-(methylsulfinyl)-1H-indole-6-carboxamide] | 40% |  |
| CN(CC1CC1)C(=O)c1ccc2c([S+](C)[O-])cn(-c3ncc(-c4ccccc4F)cn3)c2c1 (centres unmarked) [Example 360, N-(Cyclopropylmethyl)-1-(5-(2-fluorophenyl)pyrimidin-2-yl)-N-methyl-3-(methylsulfinyl)-1H-indole-6-carboxamide] | 75% |  |
| COC(=O)C1CCN(C(=O)c2ccc3c([S+](C)[O-])cn(-c4ncc(-c5ccccc5F)cn4)c3c2)C1 (centres unmarked) [Example 388, Methyl 1-(1-(5-(2-fluorophenyl)pyrimidin-2-yl)-3-(methylsulfinyl)-1H-indole-6-carbonyl)pyrrolidine-3-carboxylate] | 45% |  |
| CC1CN(C(=O)c2ccc3c([S+](C)[O-])cn(-c4ncc(-c5ccccc5F)cn4)c3c2)CC(C)O1 (single isomer, unassigned) [Example 378, (2,6-Dimethylmorpholino)(1-(5-(2-fluorophenyl)pyrimidin-2-yl)-3-(methylsulfinyl)-1H-indol-6-yl)methanone] |  | 31% |
| CCN(CC)C(=O)c1ccc2c([S+](C)[O-])cn(-c3ncc(-c4ccccc4F)cn3)c2c1 (centres unmarked) [Example 357, N,N-Diethyl-1-(5-(2-fluorophenyl)pyrimidin-2-yl)-3-(methylsulfinyl)-1H-indole-6-carboxamide] | 107% |  |
| C[S+]([O-])c1cn(-c2ncc(-c3ccccc3F)cn2)c2cc(C(=O)NCC3COC3)ccc12 (centres unmarked) [Example 83, 1-(5-(2-Fluorophenyl)pyrimidin-2-yl)-3-(methylsulfinyl)-N-(oxetan-3-ylmethyl)-1H-indole-6-carboxamide] | 67% |  |
| C[S+]([O-])c1cn(-c2ncc(-c3ccccc3F)cn2)c2cc(C(=O)N3CCNC(=O)C3)ccc12 (centres unmarked) [Example 56, 4-(1-(5-(2-Fluorophenyl)pyrimidin-2-yl)-3-(methylsulfinyl)-1H-indole-6-carbonyl)piperazin-2-one] | 86% |  |
| CS(=O)(=O)c1cn(-c2ncc(-c3ccccc3F)cn2)c2cc(C(=O)N3C[C@@H]4C[C@H]3CN4)ccc12 [Example 239, (1S,4S)-2,5-Diazabicyclo[2.2.1]heptan-2-yl(1-(5-(2-fluorophenyl)pyrimidin-2-yl)-3-(methylsulfonyl)-1H-indol-6-yl)methanone] | 78% |  |
| Cc1ccc(F)c(-c2cnc(-n3cc([S+](C)[O-])c4ccc(C(=O)N5CC[C@@H](N)C5)cc43)nc2)c1 (stereo partly drawn) [Example 227, ((R)-3-Aminopyrrolidin-1-yl)(1-(5-(2-fluoro-5-methylphenyl)pyrimidin-2-yl)-3-(methylsulfinyl)-1H-indol-6-yl)methanone] | 108% |  |
| CS(=O)(=O)c1cn(-c2ncc(-c3ccccc3F)cn2)c2cc(C(=O)N3CC[C@@H](N)C3)ccc12 [Example 69, (R)-(3-Aminopyrrolidin-1-yl)(1-(5-(2-fluorophenyl)pyrimidin-2-yl)-3-(methylsulfonyl)-1H-indol-6-yl)methanone] | 95% |  |

More lines, now with the values ahead:

| inhibition at 1 µM | Inhibition in % | SMILES |
| --- | --- | --- |
| 99% |  | C[S+]([O-])c1cn(-c2ncc(-c3ccc(O)cc3)cn2)c2cc(C(=O)N3CCOCC3)ccc12 (centres unmarked) [Example 86, (1-(5-(4-Hydroxyphenyl)pyrimidin-2-yl)-3-(methylsulfinyl)-1H-indol-6-yl)(morpholino)methanone] |
| 93% |  | C[S+]([O-])c1cn(-c2ncc(-c3cccc(C#N)c3)cn2)c2cc(C(=O)N3CCOCC3)ccc12 (centres unmarked) [Example 40, 3-(2-(3-(Methylsulfinyl)-6-(morpholine-4-carbonyl)-1H-indol-1-yl)pyrimidin-5-yl)benzonitrile] |
| 91% |  | C[S+]([O-])c1cn(-c2ncc(-c3ccccn3)cn2)c2cc(C(=O)N3CCOCC3)ccc12 (centres unmarked) [Example 50, (3-(Methylsulfinyl)-1-(5-(pyridin-2-yl)pyrimidin-2-yl)-1H-indol-6-yl)(morpholino)methanone] |
| 103% |  | Cc1cccc(-c2cnc(-n3cc([S+](C)[O-])c4ccc(C(=O)N5CCOCC5)cc43)nc2)c1 (centres unmarked) [Example 37, (3-(Methylsulfinyl)-1-(5-(m-tolyl)pyrimidin-2-yl)-1H-indol-6-yl)(morpholino)methanone] |
|  | 93% | C[S+]([O-])c1cn(-c2ncc(-c3ccccc3F)cn2)c2cc(C(=O)N3CCOCC3)ccc12 (single isomer, unassigned) [Example 166, (1-(5-(2-Fluorophenyl)pyrimidin-2-yl)-3-(methylsulfinyl)-1H-indol-6-yl)(morpholino)methanone] |
|  | 97% | Cc1cccc(-c2cnc(-n3cc([S+](C)[O-])c4ccc(C(=O)N5CCOCC5)cc43)nc2)c1 (single isomer, unassigned) [Example 155, (3-(Methylsulfinyl)-1-(5-(m-tolyl)pyrimidin-2-yl)-1H-indol-6-yl)(morpholino)methanone] |
| 102% |  | COc1ccc(F)c(-c2cnc(-n3cc([S+](C)[O-])c4ccc(C(=O)N5CCOCC5)cc43)nc2)c1 (centres unmarked) [Example 38, (1-(5-(2-Fluoro-5-methoxyphenyl)pyrimidin-2-yl)-3-(methylsulfinyl)-1H-indol-6-yl)(morpholino)methanone] |
| 77% |  | C[S+]([O-])c1cn(-c2ncc(-c3ccccc3F)cn2)c2cc(C(=O)N3CCC3)ccc12 (centres unmarked) [Example 355, Azetidin-1-yl(1-(5-(2-fluorophenyl)pyrimidin-2-yl)-3-(methylsulfinyl)-1H-indol-6-yl)methanone] |
| 79% |  | C[S+]([O-])c1cn(-c2ncc(-c3ccccc3F)cn2)c2cc(C(=O)N3CCCOCC3)ccc12 (centres unmarked) [Example 60, (1-(5-(2-Fluorophenyl)pyrimidin-2-yl)-3-(methylsulfinyl)-1H-indol-6-yl)(1,4-oxoazepan-4-yl)methanone] |
